Data: PubChem BioAssay AID330 (DTP/NCI, 2004)
“And” between values parts separate entries of the source, which are not always exact repeats. Identical values can stand only once. Inconclusive results and toxic doses are left out. Rule for the calls: active = survival T/C of 150% or more; inactive = T/C below 125% in these data.

System: P388 leukemia ip, CD2F1 mice, survival T/C
Assay: NCI In Vivo Anticancer Drug Screen. Data for tumor model P388 Leukemia (intraperitoneal) in CD2F1 (CDF1) mice
Conditions: endpoint: median survival time, higher = longer survival
How it was run: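 Mice carrying the transplanted tumor received test compound or vehicle. Survival was recorded in each group, and the value is the treated-group measurement divided by that of the vehicle-treated control group.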

[1] = dose: 100.0 mg/kg/injection, schedule: Q01DX001 (ip), vehicle: Klucel (hydroxypropylcellulose) (HPC)
[2] = dose: 200.0 mg/kg/injection, schedule: Q01DX001 (ip), vehicle: Klucel (hydroxypropylcellulose) (HPC)
[3] = dose: 400.0 mg/kg/injection, schedule: Q01DX001 (ip), vehicle: Klucel (hydroxypropylcellulose) (HPC)
[4] = dose: 12.5 mg/kg/injection, schedule: Q01DX009 (ip), vehicle: Klucel (hydroxypropylcellulose) (HPC)
[5] = dose: 25.0 mg/kg/injection, schedule: Q01DX009 (ip), vehicle: Klucel (hydroxypropylcellulose) (HPC)
[6] = dose: 50.0 mg/kg/injection, schedule: Q01DX009 (ip), vehicle: Klucel (hydroxypropylcellulose) (HPC)
[7] = dose: 200.0 mg/kg/injection, schedule: Q01DX009 (ip), vehicle: Klucel (hydroxypropylcellulose) (HPC)
[8] = dose: 50.0 mg/kg/injection, schedule: Q01DX009 (ip), vehicle: saline
[9] = dose: 100.0 mg/kg/injection, schedule: Q01DX009 (ip), vehicle: Klucel (hydroxypropylcellulose) (HPC)
[10] = dose: 60.0 mg/kg/injection, schedule: Q01DX005 (ip), vehicle: saline with Tween-80
[11] = dose: 240.0 mg/kg/injection, schedule: Q01DX005 (ip), vehicle: saline with Tween-80

Measured: T/C

Cc1ccc2nc(N/N=C/c3ccccn3)cc(C)c2c1
inactive: dose: 50.0 mg/kg/injection, schedule: Q01DX005 (ip), vehicle: saline with Tween-80 103 % of control and 107 % of control and 111 % of control | dose: 100.0 mg/kg/injection, schedule: Q01DX005 (ip), vehicle: saline with Tween-80 110 % of control and 114 % of control and 115 % of control | dose: 200.0 mg/kg/injection, schedule: Q01DX005 (ip), vehicle: saline with Tween-80 110 % of control

COc1cc(OC)c(-c2cc3ccc(OCc4ccccc4)cc3oc2=O)cc1OC
inactive: [1] 102 % of control | [2] 105 % of control | [3] 94 % of control

C=CCNc1ccc(C)cc1
inactive: dose: 33.0 mg/kg/injection, schedule: Q01DX009 (ip), vehicle: saline with Tween-80 116 % of control | dose: 50.0 mg/kg/injection, schedule: Q01DX009 (ip), vehicle: saline with Tween-80 116 % of control | dose: 100.0 mg/kg/injection, schedule: Q04DX003 (ip), vehicle: saline with Tween-80 100 % of control | dose: 200.0 mg/kg/injection, schedule: Q04DX003 (ip), vehicle: saline with Tween-80 122 % of control | dose: 400.0 mg/kg/injection, schedule: Q04DX003 (ip), vehicle: saline with Tween-80 90 % of control

CS(=O)(=O)OC1COCOC1C1OCOCC1OS(C)(=O)=O (stereo not given)
inactive: [4] 91 % of control | [5] 92 % of control | [6] 95 % of control | [7] 102 % of control

CC(=O)Cc1c(-c2ccccc2)nc(=S)[nH]c1C
inactive: [8] 100 % of control and 97 % of control | dose: 100.0 mg/kg/injection, schedule: Q01DX009 (ip), vehicle: saline 91 % of control and 92 % of control | dose: 200.0 mg/kg/injection, schedule: Q01DX009 (ip), vehicle: saline 100 % of control and 94 % of control and 96 % of control

O=[N+]([O-])c1cc2c(cc1C=Nc1ccc(O)cc1)OCO2
inactive: dose: 12.5 mg/kg/injection, schedule: Q01DX009 (ip), vehicle: other 113 % of control | dose: 25.0 mg/kg/injection, schedule: Q01DX009 (ip), vehicle: other 117 % of control | dose: 50.0 mg/kg/injection, schedule: Q01DX009 (ip), vehicle: other 113 % of control | dose: 100.0 mg/kg/injection, schedule: Q01DX009 (ip), vehicle: other 96 % of control | dose: 200.0 mg/kg/injection, schedule: Q01DX009 (ip), vehicle: other 110 % of control | dose: 400.0 mg/kg/injection, schedule: Q01DX009 (ip), vehicle: other 113 % of control

OCCN(CCO)c1nc(N(CCO)CCO)c(N2CCCCC2)c(N2CCCCC2)n1
inactive: dose: 100.0 mg/kg/injection, schedule: Q04DX002 (ip), vehicle: saline 104 % of control | dose: 200.0 mg/kg/injection, schedule: Q04DX002 (ip), vehicle: saline 105 % of control | dose: 400.0 mg/kg/injection, schedule: Q04DX002 (ip), vehicle: saline 98 % of control

N#Cc1cc(Cl)ccc1N=Cc1c(Cl)cccc1Cl
inactive: [6] 100 % of control | [9] 105 % of control | [7] 100 % of control

S=C(Nc1ccc(Br)cc1)SCc1ccco1
inactive: dose: 12.5 mg/kg/injection, schedule: Q01DX009 (ip), vehicle: saline 106 % of control | dose: 25.0 mg/kg/injection, schedule: Q01DX009 (ip), vehicle: saline 106 % of control | [8] 100 % of control | dose: 50.0 mg/kg/injection, schedule: Q01DX009 (ip), vehicle: suspension in saline 104 % of control | dose: 100.0 mg/kg/injection, schedule: Q01DX009 (ip), vehicle: suspension in saline 93 % of control | dose: 200.0 mg/kg/injection, schedule: Q01DX009 (ip), vehicle: suspension in saline 111 % of control

O=[C-]C(F)(F)F.[C-]#[O+].[C-]#[O+].[C-]#[O+].[C-]#[O+].[C-]#[O+].[Mn]
inactive: dose: 50.0 mg/kg/injection, schedule: Q01DX001 (ip), vehicle: other 100 % of control | dose: 100.0 mg/kg/injection, schedule: Q01DX001 (ip), vehicle: other 100 % of control

Cc1ccc(-n2c(COc3c(C)cccc3C)n[nH]c2=S)cc1
inactive: [4] 100 % of control | [5] 100 % of control | dose: 50.0 mg/kg/injection, schedule: Q01DX005 (ip), vehicle: Klucel (hydroxypropylcellulose) (HPC) 90 % of control | [6] 109 % of control | dose: 200.0 mg/kg/injection, schedule: Q01DX005 (ip), vehicle: Klucel (hydroxypropylcellulose) (HPC) 89 % of control

Cc1cccc(N(CCO)CCC#N)c1
inactive: dose: 50.0 mg/kg/injection, schedule: Q01DX005 (ip), vehicle: distilled water + Tween-80 + alcohol 102 % of control | dose: 100.0 mg/kg/injection, schedule: Q01DX005 (ip), vehicle: distilled water + Tween-80 + alcohol 101 % of control | dose: 200.0 mg/kg/injection, schedule: Q01DX005 (ip), vehicle: distilled water + Tween-80 + alcohol 94 % of control

CCn1c2ccccc2c2cc(NS(=O)(=O)c3ccccc3)ccc21
inactive: [6] 103 % of control | [9] 103 % of control | [7] 100 % of control

O=S(=O)(Cc1ccccc1)/N=C\c1ccc(Cl)cc1
inactive: [6] 95 % of control | [9] 103 % of control | [7] 104 % of control

CCOc1cc(C(C)c2ccc(OC)cc2)c(OCC)cc1OC (stereo not given)
inactive: [10] 106 % of control | dose: 120.0 mg/kg/injection, schedule: Q01DX005 (ip), vehicle: saline with Tween-80 100 % of control | [11] 103 % of control

CCn1c2ccccc2c2ccc(N=Cc3ccc4ccccc4c3)cc21
inactive: dose: 100.0 mg/kg/injection, schedule: Q04DX003 (ip), vehicle: saline + alcohol 92 % of control | dose: 200.0 mg/kg/injection, schedule: Q04DX003 (ip), vehicle: saline + alcohol 97 % of control | dose: 400.0 mg/kg/injection, schedule: Q04DX003 (ip), vehicle: saline + alcohol 97 % of control

BrC1(Br)C2CC3C(CC21)C3(Br)Br (stereo not given)
inactive: dose: 37.5 mg/kg/injection, schedule: Q01DX001 (ip), vehicle: saline with Tween-80 100 % of control | dose: 75.0 mg/kg/injection, schedule: Q01DX001 (ip), vehicle: saline with Tween-80 109 % of control | dose: 150.0 mg/kg/injection, schedule: Q01DX001 (ip), vehicle: saline with Tween-80 100 % of control

O=S(=O)(O)CCc1nn[nH]n1
inactive: dose: 100.0 mg/kg/injection, schedule: Q01DX001 (ip), vehicle: saline 100 % of control | dose: 200.0 mg/kg/injection, schedule: Q01DX001 (ip), vehicle: saline 101 % of control | dose: 400.0 mg/kg/injection, schedule: Q01DX001 (ip), vehicle: saline 101 % of control

CCC1OC2(C)C(O)C(/C=C/C=C/C=C/c3oc(=O)cc(OC)c3C)OC1(C)C2OC(C)=O (stereo not given)
inactive: dose: 0.5 mg/kg/injection, schedule: Q01DX009 (ip), vehicle: Klucel (hydroxypropylcellulose) (HPC) 109 % of control | dose: 1.0 mg/kg/injection, schedule: Q01DX009 (ip), vehicle: Klucel (hydroxypropylcellulose) (HPC) 105 % of control | dose: 2.0 mg/kg/injection, schedule: Q01DX009 (ip), vehicle: Klucel (hydroxypropylcellulose) (HPC) 100 % of control

O=C(CSc1nnc(CSc2ccc(Cl)cc2)n1-c1ccccc1)NC(=O)Nc1ccccc1
inactive: dose: 7.5 mg/kg/injection, schedule: Q01DX005 (ip), vehicle: saline with Tween-80 94 % of control | dose: 15.0 mg/kg/injection, schedule: Q01DX005 (ip), vehicle: saline with Tween-80 90 % of control | dose: 30.0 mg/kg/injection, schedule: Q01DX005 (ip), vehicle: saline with Tween-80 86 % of control | [10] 88 % of control | [11] 89 % of control (2×) and 96 % of control

COC(=O)NN(C(=O)OC)C12CCCCC1N(C(=O)OC)N(C(=O)OC)c1ccccc12 (stereo not given)
inactive: [1] 103 % of control | [2] 98 % of control | [3] 100 % of control
